Earlier results as cited in paper PMC3325405 (Amino Acids, 2011).

Molecular target: Klebsiella aerogenes enzyme (urease)
Details: read-out: K i, Klebsiella aerogenes urease; ref Todd 1989

Ki: 2600 nM
SMILES: CC(=O)NO [AHA, acetohydroxamic acid]
